What follows are compounds tested on verapamil binding site of the L-type calcium channel (assay: Inhibition of [3H]D888 binding to the verapamil binding site of the L-type calcium channel (rat cerebral cortex membranes)). Conditions: 10 μmol/l of test substance.
Method: 200-250 g male Sprague-Dawley rats are sacrificed by decapitation. Cerebral cortices are quickly dissected on ice and homogenized in a 20 mmol/l Tris-HCl (pH 7.4) buffer containing 250 mmol/l sucrose (buffer A). The homogenate is centrifuged at 30,000 g for 15 min at 4° C. The resulting crude membrane pellet is resuspended in a 50 mmol/l Tris-HCl (pH 7.4) buffer and incubated 15 min at 37° C. before being centrifuged at 30,000×g for 15 min at 4° C. After two more washes under the same conditions, the final pellet is resuspended in buffer A at a protein concentration ranging from 15 to 25 mg/ml and stored in liquid nitrogen.
Binding experiments are essentially performed according to Reynolds J. et al., J. Pharmacol. Exp. Ther. (1986), 237, 731-738. (1986) with slight modifications.
Membranes (120-175 μg/assay) are incubated at 25° C. for 60 min in 0.5 ml of a 50 mmol/l Tris-HCl buffer (pH 7.4) containing 2 mmol/l MgCl2, 0.2 to 0.4×10-9 mol/l of [^3H]D888 (85 Ci/mmol; Amersham, Belgium) and 10 μmol/l of the test substance. The non specific binding (NSB) is defined as the residual binding observed in the presence 10 μM verapamil. Membrane-bound and -free radioligands are separated by rapid filtration through glass fiber filters (equivalent to Whatman GF/C or GF/B; VEL, Belgium) presoaked in 0.1% polyethyleneimine to reduce non specific binding. Samples and filters are rinsed by at least 6 ml of 50 mmol/l Tris-HCl (pH 7.4) buffer. […] The radioactivity trapped onto the filters is counted by liquid scintillation in a β-counter.
The inhibition of the radioligand specific binding is calculated as follows: [formula] • where BI and Bo represent the binding observed in the presence and absence of the test substance respectively; and • BNS is the non specific binding.
Data analysis is performed by a computerized non linear curve fitting method using a set of equations describing several binding models assuming competitive interactions between ligands (Weiland G. A. and P. B. Molinoff Life Science (1981), 29, 313-330; Molinoff P. et al. (1981) Life Sci., 29, 427-443).
In the case of `C[C@@H](OC[C@@H](c1ccccc1)N1CCN(CC(=O)O)CC1)c1cc(C(F)(F)F)cc(C(F)(F)F)c1` [Compound 277], the “% inhibition of [3H]D888 binding to the verapamil binding site of the L-type calcium channel” value is reported as 0 (0: inhibition < 20%).
For `N#Cc1ccc(C(COCc2cc(C(F)(F)F)cc(C(F)(F)F)c2)N2CCN(CC(=O)O)CC2)cc1` (stereo not drawn) [Compound 320, {4-[2-(3,5-Bis-trifluoromethyl-benzyloxy)-1-(4-cyano-phenyl)-ethyl]-piperazin-1-yl}-acetic acid], the “% inhibition of [3H]D888 binding to the verapamil binding site of the L-type calcium channel” value was 0 (0: inhibition < 20%).

Each compound was assayed against NK1 receptors (Homo sapiens, UniProt P25103) (assay: Binding of [4,5-3H-Leu10] substance P to human recombinant NK1 receptors expressed in CHO cell membranes). Conditions: pIC50 = -log IC50, concentration inhibiting by 50% the specific binding of [4,5-3H] substance P; tested as the free base/salt given in c1.
Sequence of NK1 receptors (P25103 whole entry): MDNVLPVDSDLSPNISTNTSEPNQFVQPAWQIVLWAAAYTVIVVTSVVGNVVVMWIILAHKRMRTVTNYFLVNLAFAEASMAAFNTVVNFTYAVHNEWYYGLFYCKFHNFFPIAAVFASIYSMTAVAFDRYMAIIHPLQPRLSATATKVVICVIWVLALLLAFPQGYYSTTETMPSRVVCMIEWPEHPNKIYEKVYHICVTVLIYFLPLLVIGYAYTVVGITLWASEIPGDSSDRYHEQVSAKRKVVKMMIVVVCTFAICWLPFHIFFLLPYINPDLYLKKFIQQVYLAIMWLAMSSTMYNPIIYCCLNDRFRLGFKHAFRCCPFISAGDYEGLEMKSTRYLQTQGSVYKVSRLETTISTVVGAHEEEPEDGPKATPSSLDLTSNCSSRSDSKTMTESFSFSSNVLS
Design: host or cells: CHO cells
Method: The following test was designed to assess the affinity of test substances for human recombinant NK1 receptors expressed in Chinese Hamster Ovarian (CHO) cells.
CHO cells expressing the human recombinant NK1 receptor are used. The cells were obtained from Euroscreen (Brussels, Belgium).
Cells expressing the human NK1 receptor are routinely cultured in 175 cm2 flasks containing 75 ml of medium F12 (Ham) enriched with 2 mmol/l L-glutamine, 100 IU/ml penicilline, 100 μg/ml streptomycine, 1% sodium pyruvate, 2.5 μg/ml fungizone amphotericin B, 400 μg/ml geneticin and supplemented with 10% foetal calf serum. […] When subcultured, the cells are seeded at a concentration of 50,000 cells/cm2.
Confluent cells are gently scraped and resuspended in 25 ml of phosphate buffered saline without calcium and magnesium. The cellular suspension is centrifuged at 1500×g for 3 min (4° C.). The cell pellet is homogenized in a 15 mmol/l Tris-HCl (pH 7.5) buffer, 2 mmol/l MgCl2, 0.3 mmol/l EDTA, 1 mmol/l EGTA. The crude membrane fraction is collected by two consecutive centrifugation steps at 40,000×g for 25 min (4° C.). The final pellet is resuspended in 20 mmol/l Tris-HCl (pH 7.4), 250 mmol/l sucrose buffer at a protein concentration ranging from 2 to 6 mg/ml and stored in liquid nitrogen. • 1.2.2. Test Design
The inhibition constant (Ki) is determined using increasing concentrations of the test substance. The concentration range usually encompasses 6 log units with variable steps (0.3 to 1 log). Assays are performed in mono- or duplicate.
Membranes are incubated at 25° C. for 60 min in 0.5 ml of a 50 mmol/l Tris-HCl buffer (pH 7.4) containing 2 mmol/l MgCl2, 100 μg/ml bacitracine, 0.1 to 0.4×10^−9 mol/l of [4,5^3H-Leu^10] substance P (specific activity>100 Ci/mmol) and increasing concentrations of the test substance. […] Membrane-bound and free radioligands are separated by rapid filtration through glass fiber filters (equivalent to Whatman GF/C or GF/B; VEL, Belgium) presoaked in 0.1% polyethyleneimine to reduce non specific binding. Samples and filters are rinsed by at least 6 ml of 50 mmol/l Tris-HCl (pH 7.4) buffer.
Initial values for the different variables may be provided by the experimenter.
With `NC(=O)CN1CCN(C(COCc2cc(C(F)(F)F)cc(C(F)(F)F)c2)c2ccccc2)CC1` (stereo not drawn) [Compound 143] the IC50 was 39.8 nM.
For `NC(=O)CCCN1CCN(C(COCc2cc(C(F)(F)F)cc(C(F)(F)F)c2)c2ccccc2)CC1` (stereo not drawn) [Compound 288, 4-{4-[2-(3,5-Bis-trifluoromethyl-benzyloxy)-1-phenyl-ethyl]-piperazin-1-yl}-butyramide], the IC50 was 5.01 nM.
With `C[C@@H](OC[C@@H](c1ccccc1)N1CCN(CC(=O)O)CC1)c1cc(C(F)(F)F)cc(C(F)(F)F)c1` [Compound 277] the IC50 was 10 nM.
In the case of `N#CCCCCN1CCN(C(COCc2cc(C(F)(F)F)cc(C(F)(F)F)c2)c2ccccc2)CC1` (racemic) [Compound 152], the IC50 is reported as 12.6 nM.
Compound `OCCN1CCN(C(COCc2cc(C(F)(F)F)cc(C(F)(F)F)c2)c2ccccc2)CC1` (racemic) [Compound 157, 2-{4-[2-(3,5-Bis-trifluoromethyl-benzyloxy)-1-phenyl-ethyl]-piperazin-1-yl}-ethanol] has an IC50 of 6.31 nM.
`NC(=O)CN1CCN(C(COCc2cc(C(F)(F)F)cc(C(F)(F)F)c2)c2cccc3ccccc23)CC1` (racemic) [Compound 191] gave an IC50 of 63.1 nM.
Work on `COc1cc(COCCN2CCN(C(COCc3cc(C(F)(F)F)cc(C(F)(F)F)c3)c3ccccc3)CC2)cc(OC)c1OC` (stereo not drawn) [Compound 176] yielded an IC50 of 25.1 nM.
Work on `NC(=O)COCCN1CCN([C@H](COCc2cc(C(F)(F)F)cc(C(F)(F)F)c2)c2ccccc2)CC1` [Compound 148] yielded an IC50 of 39.8 nM.
`CN(C(=O)CN1CCN(C(COCc2cc(C(F)(F)F)cc(C(F)(F)F)c2)c2ccccc2)CC1)C(C)(C)C` (racemic) [Compound 294] gave an IC50 of 12.6 nM.
For `OCCOCCN1CCN([C@H](COCc2cc(C(F)(F)F)cc(C(F)(F)F)c2)c2ccccc2)CC1` [Compound 158], the IC50 was 7.94 nM.
For `N#CCOCCN1CCN(C(COCc2cc(C(F)(F)F)cc(C(F)(F)F)c2)c2ccccc2)CC1` (racemic) [Compound 155], the IC50 was 15.8 nM.
`COc1cc(CN2CCN([C@H](COCc3cc(C(F)(F)F)cc(C(F)(F)F)c3)c3ccccc3)CC2)cc(OC)c1OC` [Compound 173] gave an IC50 of 25.1 nM.
Work on `COc1cc(CN2CCN([C@@H](COCc3cc(C(F)(F)F)cc(C(F)(F)F)c3)c3ccccc3)CC2)cc(OC)c1OC` [Compound 174] yielded an IC50 of 39.8 nM.
For `FC(F)(F)c1cc(COCC(c2ccccc2)N2CCN(Cc3ccccn3)CC2)cc(C(F)(F)F)c1` (racemic) [Compound 170], the IC50 was 50.1 nM.
With `CC(C)OC(=O)CN1CCN([C@H](COCc2cc(C(F)(F)F)cc(C(F)(F)F)c2)c2ccccc2)CC1` [Compound 136] the IC50 was 79.4 nM.
For `CC(=O)NC(CCN1CCN(C(COCc2cc(C(F)(F)F)cc(C(F)(F)F)c2)c2ccccc2)CC1)c1ccccc1` (stereo not drawn) [Compound 308, N-(3-{4-[2-(3,5-Bis-trifluoromethyl-benzyloxy)-1-phenyl-ethyl]-piperazin-1-yl}-1-phenyl-propyl)-acetamide], the IC50 was 12.6 nM.
Work on `N#CCCCN1CCN(C(COCc2cc(C(F)(F)F)cc(C(F)(F)F)c2)c2ccccc2)CC1` (racemic) [Compound 151] yielded an IC50 of 20 nM.
`COc1cc(COCCN2CCN(C(COCc3cc(C(F)(F)F)cc(C(F)(F)F)c3)c3ccccc3)CC2)cc(OC)c1OC` (racemic) [Compound 175] was tested, and the IC50 was 5.01 nM.
With `CCOC(=O)CCCN1CCN(C(COCc2cc(C(F)(F)F)cc(C(F)(F)F)c2)c2ccccc2)CC1` (racemic) [Compound 138, 4-{4-[2-(3,5-Bis-trifluoromethyl-benzyloxy)-1-phenyl-ethyl]-piperazin-1-yl}-butyric acid ethyl ester] the IC50 was 10 nM.
In the case of `COC(=O)CCCCN1CCN(C(COCc2cc(C(F)(F)F)cc(C(F)(F)F)c2)c2ccccc2)CC1` (racemic) [Compound 139], the IC50 is reported as 6.31 nM.
In the case of `CC(C)(C)NC(=O)CN1CCN(C(COCc2cc(C(F)(F)F)cc(C(F)(F)F)c2)c2ccccc2)CC1` (racemic) [Compound 293], the IC50 is reported as 63.1 nM.
With `O=C1c2ccccc2C(=O)N1CCN1CCN(C(COCc2cc(C(F)(F)F)cc(C(F)(F)F)c2)c2ccccc2)CC1` (racemic) [Compound 171] the IC50 was 79.4 nM.
Work on `NC(=O)CN1CCN([C@H](COCc2cc(C(F)(F)F)cc(C(F)(F)F)c2)c2ccccc2)CC1` [Compound 144, (S)-2-{4-[2-(3,5-Bis-trifluoromethyl-benzyloxy)-1-phenyl-ethyl]-piperazin-1-yl}-acetamide] yielded an IC50 of 39.8 nM.
`O=C(CCCCCN1CCN(C(COCc2cc(C(F)(F)F)cc(C(F)(F)F)c2)c2ccccc2)CC1)NO` (stereo not drawn) [Compound 315, 6-{4-[2-(3,5-Bis-trifluoromethyl-benzyloxy)-1-phenyl-ethyl]-piperazin-1-yl}-hexanoic acid hydroxyamide] showed an IC50 of 5.01 nM.
`CCOC(=O)CCCCCN1CCN(C(COCc2cc(C(F)(F)F)cc(C(F)(F)F)c2)c2ccccc2)CC1` (racemic) [Compound 141] was tested, and the IC50 was 7.94 nM.
`NC(=O)COCCN1CCN(C(COCc2cc(C(F)(F)F)cc(C(F)(F)F)c2)c2ccccc2)CC1` (racemic) [Compound 147] showed an IC50 of 10 nM.
For `COC(=O)CN1CCN(C(COCc2cc(Br)cc(I)c2)c2ccccc2)CC1` (racemic) [Compound 208], the IC50 was 63.1 nM.
In the case of `N#CCCCCCN1CCN(C(COCc2cc(C(F)(F)F)cc(C(F)(F)F)c2)c2ccccc2)CC1` (racemic) [Compound 156], the IC50 is reported as 7.94 nM.
For `O=S1(=O)CCN(CCN2CCN(C(COCc3cc(C(F)(F)F)cc(C(F)(F)F)c3)c3ccccc3)CC2)CC1` (racemic) [Compound 161], the IC50 was 7.94 nM.
For `NC(=O)CCCCCN1CCN(C(COCc2cc(C(F)(F)F)cc(C(F)(F)F)c2)c2ccccc2)CC1` (racemic) [Compound 150], the IC50 was 5.01 nM.
Compound `NC(=O)CN1CCN([C@@H](COCc2cc(C(F)(F)F)cc(C(F)(F)F)c2)c2ccccc2)CC1` [Compound 145] has an IC50 of 31.6 nM.
`NC(=O)COCCN1CCN([C@@H](COCc2cc(C(F)(F)F)cc(C(F)(F)F)c2)c2ccccc2)CC1` [Compound 149] was tested, and the IC50 was 63.1 nM.
`FC(F)(F)c1cc(COCC(c2ccccc2)N2CCN(c3ccnc4ccccc34)CC2)cc(C(F)(F)F)c1` (stereo not drawn) [Compound 227] gave an IC50 of 39.8 nM.
For `CC(C)OC(=O)CCCCCN1CCN(C(COCc2cc(C(F)(F)F)cc(C(F)(F)F)c2)c2ccccc2)CC1` (racemic) [Compound 142], the IC50 was 7.94 nM.
Work on `CCOP(=O)(CCN1CCN([C@H](COCc2cc(C(F)(F)F)cc(C(F)(F)F)c2)c2ccccc2)CC1)OCC` [Compound 164] yielded an IC50 of 39.8 nM.
In the case of `FC(F)(F)c1cc(COCC(c2ccccc2)N2CCN(CCN3CCOCC3)CC2)cc(C(F)(F)F)c1` (racemic) [Compound 162], the IC50 is reported as 7.94 nM.
In the case of `NC(=O)CCN1CCN(C(COCc2cc(C(F)(F)F)cc(C(F)(F)F)c2)c2ccccc2)CC1` (stereo not drawn) [Compound 146], the IC50 is reported as 15.8 nM.

From patent US6916797B2, “α-arylethylpiperazine derivatives as neurokinin antagonists” (UCB, S.A., priority 2000, dated 2005)
